{"source": "patent US20230023092A1", "about": "“TREATMENT OF DEPRESSION AND OTHER VARIOUS DISORDERS WITH PSILOCYBIN” (COMPASS […], priority 2019, published 2023)", "test_system": "healthy subjects", "test": "Phase 1 study: adverse events (TEAEs, MedDRA coded)", "assay_type": "in vivo, human", "settings": "25 mg oral", "description": "A Phase 1 randomized, double-blind, placebo-controlled study to evaluate the effect of psilocybin on cognitive and emotional processing as compared to placebo in healthy volunteers was conducted. The study investigated the short-term (Day 7) and long-term (Day 28) effects of moderate (10 mg) and high doses (25 mg) of psilocybin on key domains of cognition, such as episodic memory, attention, working and spatial memory, social cognition and elements of executive function, including cognitive flexibility.\nEach subject was assigned 1 treatment bottle containing 5 capsules packaged in a double-blind fashion, depending on the randomized treatment arm, the bottle contained one of the following: • a. Psilocybin 10 mg: 2×5-mg oral psilocybin capsules plus 3×placebo capsules • b. Psilocybin 25 mg: 5×5-mg oral psilocybin capsules • c. Placebo: 5×placebo capsules\nEach 5-mg oral psilocybin capsules comprised 5 mg crystalline psilocybin in the form or Polymorph A, 12.5 mg of SMCC 50, 79.5 mg of SMCC 90, 1 mg sodium starch glycolate, 1 mg colloidal silicon dioxide, and 1 mg sodium stearyl fumarate\nAdverse events: Throughout the course of the study, all AEs were monitored and recorded. Each AE was classified according to the following criteria: • i. […] Moderate: The AE produces some impairment of functioning, but is not hazardous to the subject's health. • iii. Severe: The AE produces significant impairment of functioning or incapacitation and is a definite hazard to the subject's health.\nVisit 3 (V3): Drug Administration (Day 0): The subject was asked to eat a light breakfast at least two hours prior to coming to the clinic for study drug administration. On Day 0 (V3), the subject underwent the SSTS, had vital signs obtained, medications reviewed, AEs recorded and eligibility reviewed prior to being randomized to study drug. The study drug was administered to up to six subjects simultaneously in individual beds separated by a curtain. The subject was invited to put on eyeshades and headphones, lie down and listen to calming music for the rest of the session (six hours). The subject was supported 1:1 with a chaperone and supervised by the study psychiatrist and lead therapist.\nDuring administration of psilocybin, each subject received one-on-one support from a trained assisting therapist and each dosing session was supervised by a study psychiatrist and a lead therapist. The study drug was administered simultaneously to up to six participants as a single 5-capsule oral dose (10 mg psilocybin: 2×5-mg psilocybin capsules plus 3×placebo capsules; 25 mg psilocybin: 5×5-mg psilocybin capsules; placebo: 5×placebo capsules). Twenty-five dosing sessions were completed, with up to six participants dosed simultaneously per session. Each session lasted approximately 6 to 8 hours with subjects encouraged to relax and engage in introspection for the duration. After the acute effects of the study drug had subsided, subjects were discharged."}
{"molecule": "CN(C)CCc1c[nH]c2cccc(OP(=O)(O)O)c12", "note": "[Psilocybin, psilocybin]", "values": [{"measurement": "Illusion, Events", "value": 26}, {"measurement": "Illusion, N (%)", "value": "18 (60.0)"}, {"measurement": "Illusion, worst severity Mild, Events", "value": 4}, {"measurement": "Illusion, worst severity Mild, N (%)", "value": "3 (10.0)"}, {"measurement": "Illusion, worst severity Moderate, Events", "value": 12}, {"measurement": "Illusion, worst severity Moderate, N (%)", "value": "10 (33.3)"}, {"measurement": "Illusion, worst severity Severe, Events", "value": 7}, {"measurement": "Illusion, worst severity Severe, N (%)", "value": "5 (16.7)"}, {"measurement": "Infections and infestations, Events", "value": 4}, {"measurement": "Infections and infestations, N (%)", "value": "4 (13.3)"}, {"measurement": "Infections and infestations, worst severity Mild, Events", "value": 4}, {"measurement": "Infections and infestations, worst severity Mild, N (%)", "value": "4 (13.3)"}, {"measurement": "Infections and infestations, worst severity Moderate, Events", "value": 0}, {"measurement": "Infections and infestations, worst severity Moderate, N (%)", "value": 0}, {"measurement": "Infections and infestations, worst severity Severe, Events", "value": 0}, {"measurement": "Infections and infestations, worst severity Severe, N (%)", "value": 0}, {"measurement": "Investigations, Events", "value": 1}, {"measurement": "Investigations, N (%)", "value": "1 (3.3)"}, {"measurement": "Investigations, worst severity Mild, Events", "value": 1}, {"measurement": "Investigations, worst severity Mild, N (%)", "value": "1 (3.3)"}, {"measurement": "Investigations, worst severity Moderate, Events", "value": 0}, {"measurement": "Investigations, worst severity Moderate, N (%)", "value": 0}, {"measurement": "Investigations, worst severity Severe, Events", "value": 0}, {"measurement": "Investigations, worst severity Severe, N (%)", "value": 0}, {"measurement": "Memory impairment, Events", "value": 0}, {"measurement": "Memory impairment, N (%)", "value": 0}, {"measurement": "Mental fatigue, Events", "value": 3}, {"measurement": "Mental fatigue, N (%)", "value": "3 (10.0)"}, {"measurement": "Mood altered, Events", "value": 25}, {"measurement": "Mood altered, N (%)", "value": "15 (50.0)"}, {"measurement": "Mood altered, worst severity Mild, Events", "value": 3}, {"measurement": "Mood altered, worst severity Mild, N (%)", "value": "2 (6.7)"}, {"measurement": "Mood altered, worst severity Moderate, Events", "value": 7}, {"measurement": "Mood altered, worst severity Moderate, N (%)", "value": "6 (20.0)"}, {"measurement": "Mood altered, worst severity Severe, Events", "value": 9}, {"measurement": "Mood altered, worst severity Severe, N (%)", "value": "7 (23.3)"}, {"measurement": "Musculoskeletal and connective tissue disorders, Events", "value": 4}, {"measurement": "Musculoskeletal and connective tissue disorders, N (%)", "value": "3 (10.0)"}, {"measurement": "Musculoskeletal and connective tissue disorders, worst severity Mild, Events", "value": 3}, {"measurement": "Musculoskeletal and connective tissue disorders, worst severity Mild, N (%)", "value": "2 (6.7)"}, {"measurement": "Musculoskeletal and connective tissue disorders, worst severity Moderate, Events", "value": 1}, {"measurement": "Musculoskeletal and connective tissue disorders, worst severity Moderate, N (%)", "value": "1 (3.3)"}, {"measurement": "Musculoskeletal and connective tissue disorders, worst severity Severe, Events", "value": 0}, {"measurement": "Musculoskeletal and connective tissue disorders, worst severity Severe, N (%)", "value": 0}, {"measurement": "Nausea, Events", "value": 3}, {"measurement": "Nausea, N (%)", "value": "3 (10.0)"}, {"measurement": "Nervous system disorders, Events", "value": 43}, {"measurement": "Nervous system disorders, N (%)", "value": "25 (83.3)"}, {"measurement": "Nervous system disorders, worst severity Mild, Events", "value": 24}, {"measurement": "Nervous system disorders, worst severity Mild, N (%)", "value": "16 (53.3)"}, {"measurement": "Nervous system disorders, worst severity Moderate, Events", "value": 10}, {"measurement": "Nervous system disorders, worst severity Moderate, N (%)", "value": "8 (26.7)"}, {"measurement": "Nervous system disorders, worst severity Severe, Events", "value": 1}, {"measurement": "Nervous system disorders, worst severity Severe, N (%)", "value": "1 (3.3)"}, {"measurement": "Paraesthesia, Events", "value": 4}, {"measurement": "Paraesthesia, N (%)", "value": "4 (13.3)"}, {"measurement": "Paraesthesia, worst severity Mild, Events", "value": 3}, {"measurement": "Paraesthesia, worst severity Mild, N (%)", "value": "3 (10.0)"}, {"measurement": "Paraesthesia, worst severity Moderate, Events", "value": 1}, {"measurement": "Paraesthesia, worst severity Moderate, N (%)", "value": "1 (3.3)"}, {"measurement": "Paraesthesia, worst severity Severe, Events", "value": 0}, {"measurement": "Paraesthesia, worst severity Severe, N (%)", "value": 0}, {"measurement": "Psychiatric disorders, Events", "value": 135}, {"measurement": "Psychiatric disorders, N (%)", "value": "29 (96.7)"}, {"measurement": "Psychiatric disorders, worst severity Mild, Events", "value": 5}]}
